A word on the Kd: it is the constant that tells how readily two partners part at equilibrium. High values mean weaker binding, low ones tighter binding. As usually defined, the IC50 is the midpoint of a concentration-inhibition curve.

Molecules are shown by their SMILES.

This note sets out measurements from patent publication US12428416B2 (California Institute of Technology, priority 2018, dated 2025).

The target in one assay is ERK2 (Homo sapiens, UniProt P28482). Kind of assay: ERK1 and 2 Enzymatic Inhibition Assay (ERK2). The settings on record: 10 assay concentrations 2×10^−6 M to 6×10^−11 M, 1% DMSO. Format: biochemical. Here is the method:
(§1) ERK1 and 2 Enzymatic Inhibition Assay
(§2) For the Ki determination assay, 200 μM stock solutions of compounds were subjected to a serial, semi-logarithmic dilution using 100% DMSO as a solvent. 10 distinct concentrations were prepared, with a dilution endpoint of 6×10^−9 M in 100% DMSO. 100% DMSO was used as a control. 10 μL from each of the serial dilutions were aliquoted into separate wells of a 96-well plate and 90 μL of water were added to each of those wells. The plate was shaken thoroughly, and 5 μL from each of the plate's wells were transferred into wells of the assay plate. The final volume of wells in the assay plate was 50 μL. All compounds were tested at 10 assay concentrations in the range from 2×10^−6 M to 6×10^−11 M. The final DMSO concentration in the wells of the assay plate was 1% in all cases.

Assay [1] has as its system drug-resistant cell lines of Table 4. Briefly: Cell line growth retardation assay, average over resistant cohort. Format: cell-based, Human. The settings on record: Homo sapiens, 144 h; geometric mean of IC50s over resistant cohort (Table 4); 6 days growth; read-out: AvgRes IC50. The method, then: (§3) Cell Line Growth Retardation Assay
(§4) Cells were seeded at densities of 1,000-5,000 cells per well in 48-well tissue culture plates. After a 24 h rest period, cells were treated with compound at 10 μM, 2 μM, 0.4 μM, 0.08 μM, 0.016 μM, and 0.0032 μM. A group of cells were treated with the vehicle in which the compound was prepared and served as a control. The cells were grown in the presence of compounds for 6 days and were counted on day 0 and day 6. All cell counting was performed using a Synentec Cellavista plate imager. […] Growth inhibition was calculated as a ratio of cell population doublings in the presence of compound versus the absence of compound. […] IC50 values for each compound were calculated by fitting curves to data points from each dose-response assay using the Proc NLIN function in SAS for Windows version 9.2 (SAS Institute, Inc.).
(§5) Designation of Sensitivity and Resistant Cohorts and Calculation of Average IC50 Values
(§6) Human cancer cell lines were grouped as “sensitive” or “resistant” to ERK1 inhibition based on whether their growth was retarded by KO-947 (i.e., 1,5,6,8-tetrahydro-6-(phenylmethyl)-3-(4-pyridinyl)-7H-pyrazolo[4,3-g]quinazolin-7-one) and SCH772984 (i.e., (3R)-1-[2-oxo-2-[4-[4-(2-pyrimidinyl)phenyl]-1-piperazinyl]ethyl]-N-[3-(4-pyridinyl)-1H-indazol-5-yl]-3-pyrrolidinecarboxamide) (data not shown; see Table 4). These sensitive and resistant cohorts were interrogated for response to each compound, and IC50s were calculated for each cell line using the same technique described above. Average IC50s for the sensitive and resistant cohorts were calculated as geometric means of the group.

For a further assay, the target named is ERK1 (Homo sapiens, UniProt P27361). Briefly: ERK1 and 2 Enzymatic Inhibition Assay (ERK1). The assay is classed as biochemical. The settings on record: 10 assay concentrations 2×10^−6 M to 6×10^−11 M, 1% DMSO. Here is the method: as §1, §2
The test system of assay [2] is drug-sensitive cell lines of Table 4. Kind of assay: Cell line growth retardation assay, average over sensitive cohort. The assay is classed as cell-based, Human. Particulars: Homo sapiens, 144 h; geometric mean of IC50s over sensitive cohort (Table 4); 6 days growth; read-out: AvgSens IC50. Here is the method: as §3, §4, §5, §6

ERK2, sequence (P28482 whole entry): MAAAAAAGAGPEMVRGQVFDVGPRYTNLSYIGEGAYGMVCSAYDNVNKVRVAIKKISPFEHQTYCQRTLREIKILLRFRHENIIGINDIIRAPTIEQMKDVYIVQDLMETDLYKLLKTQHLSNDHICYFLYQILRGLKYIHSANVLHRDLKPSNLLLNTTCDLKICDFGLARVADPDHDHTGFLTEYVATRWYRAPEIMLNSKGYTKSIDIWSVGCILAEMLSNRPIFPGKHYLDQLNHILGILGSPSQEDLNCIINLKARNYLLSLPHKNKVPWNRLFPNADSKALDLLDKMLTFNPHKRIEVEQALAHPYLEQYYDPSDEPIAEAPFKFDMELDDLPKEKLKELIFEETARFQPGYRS
ERK1, sequence (P27361 whole entry): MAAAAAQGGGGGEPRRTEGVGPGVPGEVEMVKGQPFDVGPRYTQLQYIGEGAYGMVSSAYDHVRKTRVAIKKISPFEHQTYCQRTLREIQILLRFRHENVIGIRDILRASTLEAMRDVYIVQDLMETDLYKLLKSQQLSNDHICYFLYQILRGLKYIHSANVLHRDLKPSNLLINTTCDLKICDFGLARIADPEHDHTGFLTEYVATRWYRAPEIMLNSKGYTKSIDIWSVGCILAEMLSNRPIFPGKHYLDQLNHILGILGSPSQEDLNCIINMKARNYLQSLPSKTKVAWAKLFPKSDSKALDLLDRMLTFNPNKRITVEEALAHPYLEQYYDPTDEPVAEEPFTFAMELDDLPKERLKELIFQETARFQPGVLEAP

As to `CN(C)CC(NC(=O)c1ncc(-c2c[nH]c3ncc(N4CCOCC4)cc23)cn1)c1ccccc1` (stereo in doubt) [Compound 57, (S)—N-(2-(dimethylamino)-1-phenylethyl)-5-(5-morpholino-1H-pyrrolo[2,3-b]pyridin-3-yl)pyrimidine-2-carboxamide], the Kd on ERK2 and on ERK1 was > 100 nM throughout. The IC50 in assay [1] and in assay [2] was > 500 nM each time.

On to `CC(NC(=O)c1ncc(-c2c[nH]c3ncc(Br)cc23)cn1)c1ccccc1` (stereo in doubt) [Compound 67, (R)-5-(5-bromo-1H-pyrrolo[2,3-b]pyridin-3-yl)-N-(1-phenylethyl)pyrimidine-2-carboxamide], for which the Kd on ERK2 and on ERK1 was 11 to 100 nM each time. Moreover, the IC50 in assay [1] and in assay [2] was > 500 nM in each case.

As for `O=C(NCc1ccccc1)c1ncc(-c2c[nH]c3ncc(N4CCOCC4)cc23)cn1` [Compound 7, N-benzyl-5-(5-morpholino-1H-pyrrolo[2,3-b]pyridin-3-yl)pyrimidine-2-carboxamide], the Kd on ERK2 is 11 to 100 nM; at ERK1 it was ≤ 10 nM. Further, the IC50 in assay [1] and in assay [2] was > 500 nM each time.

As to `CN(Cc1ccccc1)C(=O)c1ncc(-c2c[nH]c3ncc(N4CCOCC4)cc23)cn1` [Compound 8, N-benzyl-N-methyl-5-(5-morpholino-1H-pyrrolo[2,3-b]pyridin-3-yl)pyrimidine-2-carboxamide], the Kd at ERK2 and at ERK1 was > 100 nM throughout. Besides, the IC50 in assay [1] and in assay [2] was > 500 nM throughout.

On to `O=C(NCCc1ccccc1)c1ccc(-c2c[nH]c3ncc(N4CCOCC4)cc23)nc1` [Compound 9, 6-(5-morpholino-1H-pyrrolo[2,3-b]pyridin-3-yl)-N-phenethylnicotinamide], for which the Kd on ERK2 and on ERK1 was > 100 nM throughout. Also, the IC50 in assay [1] and in assay [2] was > 500 nM each time.

For the molecule `O=C(NCc1ccc(C(F)(F)F)cc1)c1ncc(-c2c[nH]c3ncc(N4CCOCC4)cc23)cn1` [Compound 10, 5-(5-morpholino-1H-pyrrolo[2,3-b]pyridin-3-yl)-N-(4-(trifluoromethyl)benzyl)pyrimidine-2-carboxamide], the Kd on ERK2 and on ERK1 was > 100 nM throughout. Besides, the IC50 in assay [1] and in assay [2] was > 500 nM each time.

`O=C(NCCc1ccccc1)c1ccc(-c2c[nH]c3ncc(N4CCOCC4)cc23)nn1` [Compound 13, 6-(5-morpholino-1H-pyrrolo[2,3-b]pyridin-3-yl)-N-phenethylpyridazine-3-carboxamide]: the Kd at ERK2 was > 100 nM; at ERK1 it was 11 to 100 nM. The IC50 in assay [1] and in assay [2] was > 500 nM in each case.

Take `c1ccc([C@H]2CN=C(c3ncc(-c4c[nH]c5ncc(N6CCOCC6)cc45)cn3)N2)cc1` [Compound 15, (S)-4-(3-(2-(5-phenyl-4,5-dihydro-1H-imidazol-2-yl)pyrimidin-5-yl)-1H-pyrrolo[2,3-b]pyridin-5-yl)morpholine]: the Kd on ERK2 and on ERK1 was 11 to 100 nM each time. Moreover, the IC50 in assay [1] and in assay [2] was > 500 nM throughout.

On to `C[C@H](c1ccccc1)N(C)C(=O)c1ncc(-c2c[nH]c3ncc(N4CCOCC4)cc23)cn1` [Compound 17], for which the Kd on ERK2 and at ERK1 was 11 to 100 nM throughout. Besides, the IC50 in assay [1] and in assay [2] was > 500 nM throughout.

`O=C(c1ncc(-c2c[nH]c3ncc(N4CCOCC4)cc23)cn1)N1CCC[C@@H]1c1ccccc1` [Compound 18, (R)-(5-(5-morpholino-1H-pyrrolo[2,3-b]pyridin-3-yl)pyrimidin-2-yl)(2-phenylpyrrolidin-1-yl)methanone]: the Kd at ERK2 and at ERK1 was 11 to 100 nM throughout. Further, the IC50 in assay [1] and in assay [2] was > 500 nM in each case.

As to `O=C(c1ncc(-c2c[nH]c3ncc(N4CCOCC4)cc23)cn1)N1CCC[C@H]1c1ccccc1` [Compound 19, (S)-(5-(5-morpholino-1H-pyrrolo[2,3-b]pyridin-3-yl)pyrimidin-2-yl)(2-phenylpyrrolidin-1-yl)methanone], the Kd on ERK2 and at ERK1 was > 100 nM throughout. Moreover, the IC50 in assay [1] and in assay [2] was > 500 nM each time.

Regarding `C[C@@H](NC(=O)c1ncc(-c2c[nH]c3ncc(N4CCOCC4)cc23)cn1)c1cccc(C(F)(F)F)c1` [Compound 21, (R)-5-(5-morpholino-1H-pyrrolo[2,3-b]pyridin-3-yl)-N-(1-(3-(trifluoromethyl)phenyl)ethyl)pyrimidine-2-carboxamide], the Kd was 11 to 100 nM on ERK2 and ≤ 10 nM on ERK1. The values for the IC50 in assay [1] and in assay [2] were > 500 nM and 251 to 500 nM, respectively.

`CC(NC(=O)c1ncc(-c2c[nH]c3ncc(N4CCOCC4)cc23)cn1)c1ccn(C)c1` (stereo not drawn) [Compound 24, N-(1-(1-methyl-1H-pyrrol-3-yl)ethyl)-5-(5-morpholino-1H-pyrrolo[2,3-b]pyridin-3-yl)pyrimidine-2-carboxamide]: the Kd on ERK2 and on ERK1 was 11 to 100 nM in each case. The IC50 in assay [1] and in assay [2] was > 500 nM in each case.

For `C[C@H](CNC(=O)c1ncc(-c2c[nH]c3ncc(N4CCOCC4)cc23)cn1)c1ccccc1` [Compound 32], the Kd at ERK2 and at ERK1 was ≤ 10 nM in each case. The results for the IC50 in assay [1] and in assay [2] were > 500 nM and 251 to 500 nM, respectively.

For the molecule `C[C@H](NC(=O)c1ncc(-c2c[nH]c3ncc(-c4ccncc4)cc23)cn1)c1ccccc1` [Compound 39, (S)—N-(1-phenylethyl)-5-(5-(pyridin-4-yl)-1H-pyrrolo[2,3-b]pyridin-3-yl)pyrimidine-2-carboxamide], the Kd on ERK2 and at ERK1 was ≤ 10 nM in each case. The IC50 was > 500 nM in assay [1] and ≤ 250 nM in assay [2].

`C[C@H](NC(=O)c1ncc(-c2c[nH]c3ncc(N4CCOCC4)cc23)cn1)c1ccccc1F` [Compound 44, (S)—N-(1-(2-fluorophenyl)ethyl)-5-(5-morpholino-1H-pyrrolo[2,3-b]pyridin-3-yl)pyrimidine-2-carboxamide]: the Kd at ERK2 and at ERK1 was ≤ 10 nM each time. The IC50 in assay [1] is > 500 nM; in assay [2] it was ≤ 250 nM.

Consider `C[C@H](NC(=O)c1ncc(-c2c[nH]c3ncc(N4CCOCC4)cc23)cn1)c1ccccc1Cl` [Compound 45, (S)—N-(1-(2-chlorophenyl)ethyl)-5-(5-morpholino-1H-pyrrolo[2,3-b]pyridin-3-yl)pyrimidine-2-carboxamide], for which the Kd at ERK2 and at ERK1 was ≤ 10 nM in each case. The figures for the IC50 in assay [1] and in assay [2] were > 500 nM and ≤ 250 nM, respectively.

As to `COc1ccccc1[C@H](C)NC(=O)c1ncc(-c2c[nH]c3ncc(N4CCOCC4)cc23)cn1` [Compound 46, (S)—N-(1-(2-methoxyphenyl)ethyl)-5-(5-morpholino-1H-pyrrolo[2,3-b]pyridin-3-yl)pyrimidine-2-carboxamide], the Kd at ERK2 and at ERK1 was ≤ 10 nM in each case. Further, the IC50 in assay [1] is > 500 nM; in assay [2], 251 to 500 nM.
